Test results from paper PMC4178217, “Quinoline 3-sulfonamides inhibit lactate dehydrogenase A and reverse aerobic glycolysis in cancer cells” (Cancer & Metabolism, 2013).

What was measured:
[1] = system: HepG2 cells; experiment: 13C NMR spectroscopy of glucose consumption and lactate production, HepG2; assay type: cell-based, human; conditions: HepG2, 10 μM
Method: (§1) After this pre-incubation, cells were washed in PBS and resuspended in 400 μL of glucose-free RPMI supplemented with 10% deuterium oxide, 11 mM D-(1,6-^13C2)glucose, and LDHA inhibitor or DMSO. An additional 600 μL of the same medium was gently added to top off the resuspended cells. Five mm NMR tubes with reduced sample depth (Shigemi Inc, Allison Park, PA, USA) were used to ensure that the cells remain inside the active volume of the receiver coil of the probe. […] . Prior to Fourier transformation, sensitivity and resolution were enhanced by applying an exponential line-broadening of 1 Hz over the first 32,000 data points and then zero filled to 256,000 data points. Spectra were analyzed using in-house data analysis software.

[2] = system: Snu398 cells; experiment: 13C NMR spectroscopy of glucose consumption and lactate production, Snu398; assay type: cell-based, human
Method: as §1

[3] = system: PKM2 in Snu398 cells; experiment: PKM2 tetramerization (native gel, western immunoblotting); assay type: cell-based, human; conditions: Snu398, 6 h
Method: (§2) One and a half million cells per well were plated in 6-well tissue culture plates in R10 medium and allowed to attach overnight. The following morning, cells were washed and medium replaced with 2 mL/well of low-glucose medium. DMSO control or the indicated doses of LDHA inhibitor dissolved in DMSO were added to the wells and cells were incubated at 37°C for 6 h. Following the incubation, cells were washed, scraped into 200 μl of distilled de-ionized water and homogenized on ice using OMNI THq homogenizer (Omni International, Kennesaw, GA, USA). Homogenates were cleared by centrifugation and protein concentration measured by bicinchoninic acid (BCA) assay (Thermo Fisher Scientific, Waltham, MA, USA). PK activity was determined using PK Activity kit (BioVision Research Products) per manufacturer’s instructions and normalized to protein concentration. For detection of PKM2 oligomerization, the same protein samples were separated by non-denaturing gel electrophoresis using the NativePAGE™ gel system (Life Technologies), transferred onto polyvinylidene difluoride (PVDF) membranes and subjected to western immunoblotting with anti-PKM2 antibody.

[4] = PK analysis in mice; assay type: in vivo, male CD mice; conditions: oral 100 mg/kg, detection limit 2.5 ng/mL
Method: All studies were conducted after review by the Institutional Animal Care and Use Committee at GlaxoSmithKline (GSK) and in accordance with the GSK Policy on the Care, Welfare and Treatment of Laboratory Animals.

[5] = system: Snu398 cells; experiment: Pyruvate kinase (PK) activity, Snu398; assay type: cell-based; conditions: Homo sapiens, SNU-398; Snu398, 6 h
Method: as §2

[6] = human plasma protein binding by equilibrium dialysis; assay type: in vitro ADME
[7] = system: Snu398 cells; experiment: Compound cellular permeability assay, cytosolic extract; assay type: in vitro ADME, human; conditions: Snu398 treated with 1 μM for 1.5 h, LC/MS/MS
Method: The medium was removed, cells were washed in phosphate-buffered saline (PBS), and cytosolic extracts were prepared by solubilization in Qproteome lysis buffer (Qiagen, Valencia, CA). […] The medium was removed, cells were washed in PBS and solubilized in 50:50 mixture of methanol and acetonitrile. Compound concentration in the cytosolic or whole-cell extract was determined by LC/MS/MS analysis. An Acquity UPLC system (Waters Inc., Milford, MA) was coupled to an API 4000 or API 5000 triple-quad mass spectrometer (Applied Biosystems). […] Compound concentration in cells was determined by counting the number of cells in sample wells and assuming 3 pL/cell volume.

Row | Structure (SMILES) | (3-13C)lactate production [1] | (3-13C)lactate production ([2]; Snu398, 10 μM) | D-(1,6-13C2)glucose consumption ([2]; Snu398 versus HepG2, 10 μM) | PKM2 tetramerization [3] | blood compound level [4] [ng/mL] | EC50 [5] [nM] | fraction unbound [6] | apparent intracellular concentration (cytosolic extract) [7] [µM]
1 | COc1ncc(-c2ccc3c(Nc4cc(Oc5cc(F)cc(F)c5)cc(C(=O)O)c4)c(S(=O)(=O)NC4CC4)cnc3c2)c(OC)n1 [Compound 1] | significantly slowed down lactate production | significantly slowed down lactate production | only affected glucose consumption in Snu398 cells | dose dependently promoted formation of the active tetrameric form of PKM2 | ≤ 2.5 | 600 | 0.013 | 
2 | COc1ncc(-c2ccc3c(Nc4cc(C(=O)O)cc(C5CCCC5)c4)c(S(=O)(=O)NC4CC4)cnc3c2)c(OC)n1 [Compound 2] |  |  |  |  |  |  |  | 18
